Consider 22 compounds from ChEMBL document CHEMBL4049433, “Prediction of Antibiotic Interactions Using Descriptors Derived from Molecular Structure” (2017).

In brackets after ≈: the same amount, converted by molar mass.

The assay has as its system Escherichia coli. In words: Antibacterial activity against Escherichia coli MG1655 measured every 15 mins for 12 hrs. Type of assay: functional. The note with it: K-12 substr. MG1655.
One may read the MIC as the smallest concentration in the dilution series that meets the test's criterion for growth inhibition. Take `NCC[C@H](O)C(=O)N[C@@H]1C[C@H](N)[C@@H](O[C@H]2O[C@H](CN)[C@@H](O)[C@H](O)[C@H]2O)[C@H](O)[C@H]1O[C@H]1O[C@H](CO)[C@@H](O)[C@H](N)[C@H]1O` [AMIKACIN]: the MIC is 4 µg/mL (≈ 6.83 µM). Take `CO[C@@]1(NC(=O)Cc2cccs2)C(=O)N2C(C(=O)O)=C(COC(N)=O)CS[C@@H]21` [CEFOXITIN]: the MIC came to 4.5 µg/mL (≈ 10.5 µM). Compound `O=C(N[C@H](CO)[C@H](O)c1ccc([N+](=O)[O-])cc1)C(Cl)Cl` [CHLORAMPHENICOL] gave an MIC of 5 µg/mL (≈ 15.5 µM).

`CC[C@H]1OC(=O)[C@H](C)[C@@H](O[C@H]2C[C@@](C)(OC)[C@@H](O)[C@H](C)O2)[C@H](C)[C@@H](O[C@@H]2O[C@H](C)C[C@H](N(C)C)[C@H]2O)[C@](C)(OC)C[C@@H](C)C(=O)[C@H](C)[C@@H](O)[C@]1(C)O` [CLARITHROMYCIN] had an MIC of 22 µg/mL (≈ 29.4 µM). In the case of `CC[C@H]1OC(=O)[C@H](C)[C@@H](O[C@H]2C[C@@](C)(OC)[C@@H](O)[C@H](C)O2)[C@H](C)[C@@H](O[C@@H]2O[C@H](C)C[C@H](N(C)C)[C@H]2O)[C@](C)(O)C[C@@H](C)C(=O)[C@H](C)[C@@H](O)[C@]1(C)O` [ERYTHROMYCIN], inhibition of growth (MIC) required 13 µg/mL (≈ 17.7 µM). Compound `O=c1[nH]cc(F)c(=O)[nH]1` [FLUOROURACIL] displayed an MIC of 25 µg/mL (≈ 192 µM).

`CC(=O)O[C@H]1C[C@@]2(C)[C@@H](C[C@@H](O)[C@H]3[C@@]4(C)CC[C@@H](O)[C@@H](C)[C@@H]4CC[C@@]32C)/C1=C(\CCC=C(C)C)C(=O)O` [FUSIDIC ACID] came in with an MIC of 800 µg/mL (≈ 1550 µM). Against the preceding compound, the MIC is about 32-fold higher.

Turning to `NC[C@H]1O[C@H](O[C@H]2[C@H](O)[C@@H](O[C@H]3O[C@H](CO)[C@@H](O)[C@H](N)[C@H]3O)[C@H](N)C[C@@H]2N)[C@H](O)[C@@H](O)[C@@H]1O` [KANAMYCIN], the MIC stood at 14 µg/mL (≈ 28.9 µM). Against the preceding compound, the MIC is about 57-fold lower. The compound `C/C(=C\C(=O)OCCCCCCCCC(=O)O)C[C@@H]1OC[C@H](C[C@@H]2O[C@H]2[C@@H](C)[C@H](C)O)[C@@H](O)[C@H]1O` [MUPIROCIN] gave an MIC of 66 µg/mL (≈ 132 µM). This MIC is about 4.7-fold higher than that of the compound before. On to `CCn1cc(C(=O)O)c(=O)c2ccc(C)nc21` [NALIDIXIC ACID], for which the MIC was determined as 5 µg/mL (≈ 21.5 µM). This MIC is about 13-fold lower than that of the compound before. With `O=C1CN(/N=C/c2ccc([N+](=O)[O-])o2)C(=O)N1` [NITROFURANTOIN] the figure was 12 µg/mL (≈ 50.4 µM); with `Cc1onc(-c2ccccc2)c1C(=O)N[C@@H]1C(=O)N2[C@@H]1SC(C)(C)[C@@H]2C(=O)O` [OXACILLIN], 190 µg/mL (≈ 473 µM). The value for `CC1(C)S[C@@H]2[C@H](NC(=O)Cc3ccccc3)C(=O)N2[C@H]1C(=O)O` [PENICILLIN G] was 20 µg/mL (≈ 59.8 µM); that for `N=C(N)c1ccc(OCCCCCOc2ccc(C(=N)N)cc2)cc1` [PENTAMIDINE] was 100 µg/mL (≈ 294 µM). Compound `CO[C@H]1/C=C/O[C@@]2(C)Oc3c(C)c(O)c4c(O)c(c(/C=N/N5CCN(C)CC5)c(O)c4c3C2=O)NC(=O)/C(C)=C\C=C\[C@H](C)[C@H](O)[C@@H](C)[C@@H](O)[C@@H](C)[C@H](OC(C)=O)[C@@H]1C` [RIFAMPIN] had a minimal inhibitory concentration (MIC) of 2.5 µg/mL (≈ 3.04 µM). `CC[C@H]1OC(=O)[C@H](C)[C@@H](O[C@H]2C[C@@](C)(OC)[C@@H](O)[C@H](C)O2)[C@H](C)[C@@H](O[C@@H]2O[C@H](C)C[C@H](N(C)C)[C@H]2O)[C@](C)(O)C[C@@H](C)/C(=N\OCOCCOC)[C@H](C)[C@@H](O)[C@]1(C)O` [ROXITHROMYCIN] returned an MIC of 62 µg/mL (≈ 74.1 µM). Compared with the last compound, the MIC is about 25-fold higher. The compound `CN[C@@H]1[C@H](O)[C@H](NC)[C@H]2O[C@@]3(O)C(=O)C[C@@H](C)O[C@H]3O[C@@H]2[C@H]1O` [SPECTINOMYCIN] gave an MIC of 5.6 µg/mL (≈ 16.8 µM). As for `CN(C)[C@@H]1C(O)=C(C(N)=O)C(=O)[C@@]2(O)C(O)=C3C(=O)c4c(O)cccc4[C@@](C)(O)[C@H]3C[C@@H]12` [TETRACYCLINE], the lowest concentration to inhibit growth (MIC) was 18 µg/mL (≈ 40.5 µM). Regarding `NC[C@H]1O[C@H](O[C@H]2[C@H](O)[C@@H](O[C@H]3O[C@H](CO)[C@@H](O)[C@H](N)[C@H]3O)[C@H](N)C[C@@H]2N)[C@H](N)C[C@@H]1O` [TOBRAMYCIN], the MIC was found to be 2.5 µg/mL (≈ 5.35 µM). In the case of `COc1cc(Cc2cnc(N)nc2N)cc(OC)c1OC` [TRIMETHOPRIM], the MIC came to 0.35 µg/mL (≈ 1.21 µM). For `CN[C@H](CC(C)C)C(=O)N[C@H]1C(=O)N[C@@H](CC(N)=O)C(=O)N[C@H]2C(=O)N[C@H]3C(=O)N[C@H](C(=O)N[C@H](C(=O)O)c4cc(O)cc(O)c4-c4cc3ccc4O)[C@H](O)c3ccc(c(Cl)c3)Oc3cc2cc(c3O[C@@H]2O[C@H](CO)[C@@H](O)[C@H](O)[C@H]2O[C@H]2C[C@](C)(N)[C@H](O)[C@H](C)O2)Oc2ccc(cc2Cl)[C@H]1O` [VANCOMYCIN], the MIC is 180 µg/mL (≈ 124 µM). Compound GENTAMICIN returned an MIC of 3 µg/mL.
